Source: US11149018B2, “Substituted N-arylethyl-2-aminoquinoline-4-carboxamides and use thereof” (Bayer Aktiengesellschaft, priority 2017, dated 2021)
pIC50: −log10 of the molar value.

Biological target: FP receptor (Homo sapiens (Human), UniProt P43088)
Experiment: In vitro test of inhibition of human FP receptor activity (PGF2α-induced calcium flux in FP-expressing CHEM1 cells)
Type: cell-based
Details: PGF2α 2 nM, some mean values of multiple determinations
Procedure, shortened: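 FP antagonism in FP-expressing CHEM1 cells loaded with Fluo-8. Compound preincubated 10 min at 37° C, then receptor stimulated with 2 nM (final) PGF2α in calcium-free Tyrode with 2 mM CaCl2.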

Chain of FP receptor (P43088 whole entry): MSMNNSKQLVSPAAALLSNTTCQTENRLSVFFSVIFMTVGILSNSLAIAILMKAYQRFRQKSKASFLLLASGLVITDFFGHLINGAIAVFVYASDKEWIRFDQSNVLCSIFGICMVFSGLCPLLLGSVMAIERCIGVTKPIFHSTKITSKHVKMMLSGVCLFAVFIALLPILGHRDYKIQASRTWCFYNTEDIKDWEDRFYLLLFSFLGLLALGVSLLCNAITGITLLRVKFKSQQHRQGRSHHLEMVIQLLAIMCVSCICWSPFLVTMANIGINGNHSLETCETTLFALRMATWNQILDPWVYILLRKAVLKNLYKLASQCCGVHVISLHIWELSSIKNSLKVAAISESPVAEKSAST

Row | Compound | pIC50
1 | Cc1c(N2CCCC(C)C2)nc2ccc(Br)cc2c1C(=O)NCC(CCC(=O)O)c1ccccc1Cl (single isomer, unassigned; (+)) [Example 47, (+)-5-[({6-Bromo-3-methyl-2-[3-methylpiperidin-1-yl]quinolin-4-yl}carbonyl)amino]-4-(2-chlorophenyl)pentanoic acid] | 7.85
2 | Cc1c(N2CCCCC2)nc2ccc(Br)cc2c1C(=O)NCC(CCC(=O)O)c1cccc(F)c1Cl (single isomer, unassigned; (-)) [Example 142, (−)-5-({[6-Bromo-3-methyl-2-(piperidin-1-yl)quinolin-4-yl]carbonyl}amino)-4-(2-chloro-3-fluorophenyl)pentanoic acid] | 8.37
3 | Cc1c(N2CCCC(C(C)C)C2)nc2ccc(Br)cc2c1C(=O)NCC(CCC(=O)O)c1ccccc1Cl (centres unmarked) [Example 91, 5-[({6-Bromo-2-[3-isopropylpiperidin-1-yl]-3-methylquinolin-4-yl}carbonyl)amino]-4-(2-chlorophenyl)pentanoic acid] | 8.00
4 | CCC1CCCN(c2nc3ccc(Br)cc3c(C(=O)NCC(CCC(=O)O)c3ccccc3OC(F)(F)F)c2C)C1 (centres unmarked) [Example 139, 5-[({6-Bromo-2-[3-ethylpiperidin-1-yl]-3-methylquinolin-4-yl}carbonyl)amino]-4-[2-(trifluoromethoxy)phenyl]pentanoic acid] | 8.82
5 | Cc1c(N2CC[C@@H](F)C2)nc2ccc(Br)cc2c1C(=O)NCC(CCC(=O)O)c1ccccc1Cl (single isomer, unassigned; (+)) [Example 67] | 8.19
6 | CCC1CCCN(c2nc3ccc(Br)cc3c(C(=O)NCC(CCC(=O)O)c3c(F)cccc3C(F)(F)F)c2C)C1 (centres unmarked) [Example 170, 5-[({6-Bromo-2-[3-ethylpiperidin-1-yl]-3-methylquinolin-4-yl}carbonyl)amino]-4-[2-fluoro-6-(trifluoromethyl)phenyl]pentanoic acid] | 8.57
7 | Cc1c(N2CCOC(CO)C2)nc2ccc(Br)cc2c1C(=O)NCC(CCC(=O)O)c1cc(F)ccc1Cl (centres unmarked) [Example 20, 5-[({6-Bromo-2-[2-(hydroxymethyl)morpholin-4-yl]-3-methylquinolin-4-yl}carbonyl)amino]-4-(2-chloro-5-fluorophenyl)pentanoic acid] | 6.31
8 | Cc1c(N2CCCC(F)(F)C2)nc2ccc(Br)cc2c1C(=O)NCC(CCC(=O)O)c1ccccc1OC(F)(F)F (single isomer, unassigned; (-)) [Example 133, (−)-5-({[6-Bromo-2-(3,3-difluoropiperidin-1-yl)-3-methylquinolin-4-yl]carbonyl}amino)-4-[2-(trifluoromethoxy)phenyl]pentanoic acid] | 8.70
9 | Cc1c(N2CCCCC2)nc2ccc(Br)cc2c1C(=O)NCC(CCC(=O)O)c1c(F)cccc1C(F)(F)F (racemic) [Example 160, (+/−)-5-({[6-Bromo-3-methyl-2-(piperidin-1-yl)quinolin-4-yl]carbonyl}amino)-4-[2-fluoro-6-(trifluoromethyl)phenyl]pentanoic acid] | 8.28
10 | CCC1CCCN(c2nc3ccc(Br)cc3c(C(=O)NCC(CCC(=O)O)c3ccccc3Cl)c2C)C1 (single isomer, unassigned; (+)) [Example 61, (+)-5-[({6-Bromo-2-[3-ethylpiperidin-1-yl]-3-methylquinolin-4-yl}carbonyl)amino]-4-(2-chlorophenyl)pentanoic acid] | 9.08
11 | Cc1c(N2CCCCCC2)nc2ccc(Br)cc2c1C(=O)NCC(CCC(=O)O)c1ccccc1OC(F)(F)F (single isomer, unassigned; (+)) [Example 137, (+)-5-({[2-(Azepan-1-yl)-6-bromo-3-methylquinolin-4-yl]carbonyl}amino)-4-[2-(trifluoromethoxy)phenyl]pentanoic acid] | 8.42
12 | Cc1c(N(C)CCc2ccccc2)nc2ccc(Br)cc2c1C(=O)NCC(CCC(=O)O)c1ccccc1Cl (racemic) [Example 95, (+/−)-5-[({6-Bromo-3-methyl-2-[methyl(2-phenylethyl)amino]quinolin-4-yl}carbonyl)amino]-4-(2-chlorophenyl)pentanoic acid] | 7.19
13 | Cc1c(N2CCCCO2)nc2ccc(Br)cc2c1C(=O)NCC(CCC(=O)O)c1ccccc1Cl (racemic) [Example 32, (+/−)-5-({[6-Bromo-3-methyl-2-(1,2-oxazinan-2-yl)quinolin-4-yl]carbonyl}amino)-4-(2-chlorophenyl)pentanoic acid] | 7.32
14 | Cc1c(N2CCCO2)nc2ccc(Br)cc2c1C(=O)NCC(CCC(=O)O)c1ccccc1Cl (single isomer, unassigned; (-)) [Example 39, (−)-5-({[6-Bromo-3-methyl-2-(1,2-oxazolidin-2-yl)quinolin-4-yl]carbonyl}amino)-4-(2-chlorophenyl)pentanoic acid] | 7.62
15 | Cc1c(N2CCC(C)C2)nc2ccc(Br)cc2c1C(=O)NCC(CCC(=O)O)c1ccccc1Cl (centres unmarked) [Example 36, 5-[({6-Bromo-3-methyl-2-[3-methylpyrrolidin-1-yl]quinolin-4-yl}carbonyl)amino]-4-(2-chlorophenyl)pentanoic acid] | 7.66
16 | Cc1c(N2CCCC2)nc2ccc(Br)cc2c1C(=O)NCC(CCC(=O)O)c1ccccc1OC(F)(F)F (single isomer, unassigned; (-)) [Example 130, (−)-5-({[6-Bromo-3-methyl-2-(pyrrolidin-1-yl)quinolin-4-yl]carbonyl}amino)-4-[2-(trifluoromethoxy)phenyl]pentanoic acid] | 8.59
17 | (−)-5-[({6-Bromo-3-methyl-2-[(^2H10)piperidin-1-yl]quinolin-4-yl}carbonyl)amino]-4-[2-(trifluoromethoxy)phenyl]pentanoic acid [Example 272] | 9.07
18 | Cc1c(N2CCCC(C#N)C2)nc2ccc(Br)cc2c1C(=O)NCC(CCC(=O)O)c1ccccc1Cl (centres unmarked) [Example 76, 5-[({6-Bromo-2-[3-cyanopiperidin-1-yl]-3-methylquinolin-4-yl}carbonyl)amino]-4-(2-chlorophenyl)pentanoic acid] | 6.17
19 | Cc1c(N2CCCCCC2)nc2ccc(Br)cc2c1C(=O)NCC(CCC(=O)O)c1ccccc1C(F)(F)F (racemic) [Example 120, (+/−)-5-({[2-(Azepan-1-yl)-6-bromo-3-methylquinolin-4-yl]carbonyl}amino)-4-[2-(trifluoromethyl)phenyl]pentanoic acid] | 7.96

Next, values leading:

Row | pIC50 | Compound
20 | 7.25 | Cc1c(N2CCCC(F)(F)C2)nc2ccc(Br)cc2c1C(=O)NCC(CCC(=O)O)c1c(Cl)ccc(Cl)c1Cl (single isomer, unassigned; (+)) [Example 178, (+)-5-({[6-Bromo-2-(3,3-difluoropiperidin-1-yl)-3-methylquinolin-4-yl]carbonyl}amino)-4-(2,3,6-trichlorophenyl)pentanoic acid]
21 | 7.26 | Cc1c(N2CCCC2)nc2ccc(Br)cc2c1C(=O)NCC(CCC(=O)O)c1c(F)cccc1F (racemic) [Example 247, (+/−)-5-({[6-Bromo-3-methyl-2-(pyrrolidin-1-yl)quinolin-4-yl]carbonyl}amino)-4-(2,6-difluorophenyl)pentanoic acid hydrogenformate]
22 | 8.52 | Cc1c(N2CCCC(F)C2)nc2ccc(Br)cc2c1C(=O)NCC(CCC(=O)O)c1c(Cl)ccc(Cl)c1Cl (single isomer, unassigned) [Example 222, 5-[({6-Bromo-2-[3-fluoropiperidin-1-yl]-3-methylquinolin-4-yl}carbonyl)amino]-4-(2,3,6-trichlorophenyl)pentanoic acid]
23 | 8.85 | COc1ccccc1C(CCC(=O)O)CNC(=O)c1c(C)c(N2CCCCCC2)nc2ccc(Br)cc12 (single isomer, unassigned; (+)) [Example 239, (+)-5-({[2-(Azepan-1-yl)-6-bromo-3-methylquinolin-4-yl]carbonyl}amino)-4-(2-methoxyphenyl)pentanoic acid]
24 | 7.26 | Cc1c(N2CCCC2)nc2ccc(Br)cc2c1C(=O)NCC(CCC(=O)O)c1cc(F)ccc1F (single isomer, unassigned; (+)) [Example 259, (+)-5-({[6-Bromo-3-methyl-2-(pyrrolidin-1-yl)quinolin-4-yl]carbonyl}amino)-4-(2,5-difluorophenyl)pentanoic acid]
25 | 8.59 | Cc1c(N2CCCC(F)C2)nc2ccc(Br)cc2c1C(=O)NCC(CCC(=O)O)c1ccccc1OC(F)(F)F (single isomer, unassigned; (+)) [Example 204, (+)-5-[({6-Bromo-2-[3-fluoropiperidin-1-yl]-3-methylquinolin-4-yl}carbonyl)amino]-4-[2-(trifluoromethoxy)phenyl]pentanoic acid]
26 | 7.80 | COc1ccccc1C(CCC(=O)O)CNC(=O)c1c(C)c(N2CCCCCC2)nc2ccc(Br)cc12 (single isomer, unassigned; (-)) [Example 240, (−)-5-({[2-(Azepan-1-yl)-6-bromo-3-methylquinolin-4-yl]carbonyl}amino)-4-(2-methoxyphenyl)pentanoic acid]
27 | 8.00 | Cc1ccc(F)cc1C(CCC(=O)O)CNC(=O)c1c(C)c(N2CCCC(F)(F)C2)nc2ccc(Br)cc12 (single isomer, unassigned; (-)) [Example 213, (−)-5-({[6-Bromo-2-(3,3-difluoropiperidin-1-yl)-3-methylquinolin-4-yl]carbonyl}amino)-4-(5-fluoro-2-methylphenyl)pentanoic acid]
28 | 7.92 | Cc1c(N2CCCCC2)nc2ccc(Br)cc2c1C(=O)NCC(CCC(=O)O)c1c(F)cccc1F (racemic) [Example 244, (+/−)-5-({[6-Bromo-3-methyl-2-(piperidin-1-yl)quinolin-4-yl]carbonyl}amino)-4-(2,6-difluorophenyl)pentanoic acid]
29 | 8.62 | COc1ccccc1C(CCC(=O)O)CNC(=O)c1c(C)c(N2CCCC(F)(F)C2)nc2ccc(Br)cc12 (single isomer, unassigned; (+)) [Example 289, (+)-5-({[6-Bromo-2-(3,3-difluoropiperidin-1-yl)-3-methylquinolin-4-yl]carbonyl}amino)-4-(2-methoxyphenyl)pentanoic acid]
